What was measured:
[1] = biological target: T1, KRASG12D (Homo sapiens, UniProt P01116, G12D); assay: Bio-Biochem-PPI-HTRF Ras-SOS1 interaction assay (KRAS G12D); type: biochemical; settings: 5 nM
T1 construct: made in house; host or cells: E. coli BL21 (DE3)
Method in brief: (§1)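 HTRF readout (ex 337 nm; em 620 and 665 nm) after ≥~10 min incubation; IC50 fitted from 665/620 ratio. GST-K-Ras wt or G12D plus anti-GST-Eu(K), His-hSOS1 plus anti-6His-XL665; duplicate dilutions, 10 μM top.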

[2] = biological target: T2, KRASwt (Homo sapiens, UniProt P01116); assay: Bio-Biochem-PPI-HTRF Ras-SOS1 interaction assay (KRAS wt); type: biochemical; settings: 5 nM
T2 construct: made in house; host or cells: E. coli BL21 (DE3)
T2 sequence (P01116 1-188 isoform P01116-2): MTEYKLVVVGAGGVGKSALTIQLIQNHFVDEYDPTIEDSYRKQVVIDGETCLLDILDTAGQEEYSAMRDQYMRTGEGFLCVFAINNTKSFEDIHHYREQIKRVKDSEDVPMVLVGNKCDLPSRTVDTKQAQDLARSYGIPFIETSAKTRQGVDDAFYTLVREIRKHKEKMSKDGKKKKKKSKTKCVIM
Method in brief: as §1

T1 sequence (P01116 1-188 isoform P01116-2 G12D): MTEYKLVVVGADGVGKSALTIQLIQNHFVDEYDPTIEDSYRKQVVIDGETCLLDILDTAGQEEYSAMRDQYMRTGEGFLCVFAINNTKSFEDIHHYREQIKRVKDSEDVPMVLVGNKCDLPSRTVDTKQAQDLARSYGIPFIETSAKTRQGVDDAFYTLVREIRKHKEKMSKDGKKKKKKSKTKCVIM

| IC50 [1] [µM] | IC50 [2] [µM] | SMILES |
| --- | --- | --- |
| ≥ 5 | < 5 | Nc1nc2c(-c3c(Cl)cc4c(N5CCC6(CC5)CN(C(=O)C(F)(F)F)C6)nc(OC[C@@]56CCCN5C[C@H](F)C6)nc4c3F)ccc(F)c2s1 [compound 168, 1-(7-(7-(2-amino-7-fluorobenzo[d]thiazol-4-yl)-6-chloro-8-fluoro-2-(((2R,7aS)-2-fluorotetrahydro-1H-pyrrolizin-7a(5H)-yl)methoxy)quinazolin-4-yl)-2,7-diazaspiro[3.5]nonan-2-yl)-2,2,2-trifluoroethan-1-one] |
| < 5 | < 5 | N#Cc1c(N)sc2c(F)ccc(-c3c(Cl)cc4c(N5CCCCC6(CN(C(=O)C7CCC7C#N)C6)C5)nc(OC[C@@]56CCCN5C[C@H](F)C6)nc4c3F)c12 (stereo partly drawn) [compound 345, 2-amino-4-(6-chloro-4-(2-(2-cyanocyclobutane-1-carbonyl)-2,6-diazaspiro[3.6]decan-6-yl)-8-fluoro-2-(((2R,7aS)-2-fluorotetrahydro-1H-pyrrolizin-7a(5H)-yl)methoxy)quinazolin-7-yl)-7-fluorobenzo[b]thiophene-3-carbonitrile] |
| < 5 | < 5 | C#Cc1c(F)ccc2cc(O)cc(-c3ncc4c(N5CCCC6(CN(C(=O)[C@@H]7C[C@H]7C#N)C6)C5)nc(O[C@@H](C)[C@@H]5CCCN5C)nc4c3F)c12 [compound 113, (1R,2R)-2-(6-(7-(8-ethynyl-7-fluoro-3-hydroxynaphthalen-1-yl)-8-fluoro-2-((S)-1-((S)-1-methylpyrrolidin-2-yl)ethoxy)pyrido[4,3-d]pyrimidin-4-yl)-2,6-diazaspiro[3.5]nonane-2-carbonyl)cyclopropane-1-carbonitrile] |
| < 5 | < 5 | CC1(C(=O)N2CC3(CCCCN(c4nc(OC[C@@]56CCCN5C[C@H](F)C6)nc5c(F)c(-c6ccc(F)c7sc(N)c(C#N)c67)c(Cl)cc45)C3)C2)CC1 [compound 228, 2-amino-4-(6-chloro-8-fluoro-2-(((2R,7aS)-2-fluorotetrahydro-1H-pyrrolizin-7a(5H)-yl)methoxy)-4-(2-(1-methylcyclopropane-1-carbonyl)-2,6-diazaspiro[3.6]decan-6-yl)quinazolin-7-yl)-7-fluorobenzo[b]thiophene-3-carbonitrile] |
| < 5 | < 5 | N#Cc1c(N)sc2c(F)ccc(-c3c(Cl)cc4c(N5CCCCC6(C5)CN(S(=O)(=O)C5CC5)C6)nc(OC[C@@]56CCCN5C[C@H](F)C6)nc4c3F)c12 [compound 195, 2-amino-4-(6-chloro-4-(2-(cyclopropylsulfonyl)-2,6-diazaspiro[3.6]decan-6-yl)-8-fluoro-2-(((2R,7aS)-2-fluorotetrahydro-1H-pyrrolizin-7a(5H)-yl)methoxy)quinazolin-7-yl)-7-fluorobenzo[b]thiophene-3-carbonitrile] |
| < 5 | < 5 | N#Cc1c(N)sc2c(F)ccc(-c3c(Cl)cc4c(N5CCCCC6(CN(C(=O)C7CC7(F)F)C6)C5)nc(OC[C@@]56CCCN5C[C@H](F)C6)nc4c3F)c12 (stereo partly drawn) [compound 154, 2-amino-4-(6-chloro-4-(2-(2,2-difluorocyclopropane-1-carbonyl)-2,6-diazaspiro[3.6]decan-6-yl)-8-fluoro-2-(((2R,7aS)-2-fluorotetrahydro-1H-pyrrolizin-7a(5H)-yl)methoxy)quinazolin-7-yl)-7-fluorobenzo[b]thiophene-3-carbonitrile] |
| < 5 | < 5 | CN(C)C/C=C/C(=O)N1CC2(CCN(c3nc(OC[C@@]45CCCN4C[C@H](F)C5)nc4c(F)c(-c5ccc(F)c6sc(N)c(C#N)c56)c(Cl)cc34)C2)C1 [compound 183, 2-amino-4-(6-chloro-4-(2-((E)-4-(dimethylamino)but-2-enoyl)-2,6-diazaspiro[3.4]octan-6-yl)-8-fluoro-2-(((2R,7aS)-2-fluorotetrahydro-1H-pyrrolizin-7a(5H)-yl)methoxy)quinazolin-7-yl)-7-fluorobenzo[b]thiophene-3-carbonitrile] |

Source: patent US20240109918A1, “HETEROCYCLIC COMPOUNDS AND USES THEREOF” (Kumquat Biosciences Inc., priority 2022, published 2024)
